Drawing on patent US12037345B2, “Heterobicyclic compounds for inhibiting the activity of SHP2” (TAIHO PHARMACEUTICAL CO., LTD., priority 2018, dated 2024), this text covers IC50 for 18 compounds.

Molecules are shown by their SMILES. Structures can show the parent of a compound that is named as a salt. Where two headings read alike, the source gives them in different places. Some results are limits rather than exact numbers.

Assay [1] has as its system pERK (phospho-p44/42 ERK) in HCC827 cells. Nature of the assay: Cellular pERK Inhibition Assay, Method A (In-Cell Western). Format: cell-based. On the procedure:
Cellular pERK Inhibition Assay
pERK levels were determined using the In-Cell Western assay. HCC827 cells (ATCC, Manassas, USA) were seeded into 384-well plates at a density of 1×10^4 cells/well in RPMI1640 medium supplemented with 10% FBS and incubated 24h. Compounds were diluted first in DMSO and then into serum-free medium, before being added to cells in quadruplicate to give a final concentration of 0.2% DMSO. Plates were incubated at 37° C. for the indicated time in a humidified atmosphere of 5% CO2 in air.
Following compound treatment, cells were fixed with formalin neutral buffer solution for 20 minutes at room temperature. Plates were washed three times with 0.1% Triton-X in PBS and cells were blocked for 1 hour with Odyssey blocking buffer (LI-COR, #927-40000). After shaking out blocking buffer, cells were incubated with phospho-p44/42 ERK antibody (Cell Signalling Technology, #4370, 1:200) diluted in Odyssey blocking buffer at 4° C. overnight. Plates were washed again and cells were incubated for 1 hour with Goat anti-Rabbit […] (LI-COR, #926-32211, 1:800) diluted in Odyssey blocking buffer. After washing and removing wash solution completely using a centrifuge machine, cells were scanned on the Odyssey (LI-COR), following the manufacturer's instructions. The average signal from blank wells (no cells added) was subtracted from the signals from each sample well. Levels of pERK were then expressed as percent of control, using DMSO treated samples as control. The relative IC50 values were calculated in quadruplicate from the normalized dose-response plots using four parameter logistic curve fit. The Experiment for each compound was carried out in one time or multiple times, and the IC50 values were shown as a single value (for a compound measured in a single experiment) or an average value (for a compound measured in multiple experiments).

Another assay deals with SHP2 (Homo sapiens (Human), UniProt Q06124). Briefly: SHP2 Biochemical Assay (DiFMUP conversion, pIRS1-activated). On the procedure:
SHP2 activity was monitored by measuring the conversion of the surrogate substrate 6,8-difluoromethylumbelliferyl phosphate (DiFMUP) to the fluorescent product, 6,8-difluoromethylumbelliferone (DiFMU).
SHP2 was pre-incubated with test compounds and the activating peptide pIRS1 (H2N-LN(pY)IDLDLV-(PEG)8-LST(pY)ASINFQK-amide) for 30 min, prior to addition of the 6,8-difluoromethylumbelliferyl phosphate (DiFMUP), (Thermo Fisher D6567). Final assay concentrations were 10 pM SHP2, […] pIRS1 peptide, 50 μM DiFMUP, 25 mM Bis-Tris propane, pH 7.0, 150 mM NaCl, 0.05% (v/v) Tween-20, 0.5 mM TCEP and 5% (v/v) DMSO. Rates of reaction were then measured over 30 min by monitoring fluorescence on a BMG Pherastar reader at excitation 360 nm/emission 450 nm. IC50 values were calculated in singlicate from the normalized dose-response plots using four parameter logistic curve fit. The Experiment for each compound was carried out in one time or multiple times, and the IC50 values were shown as a single value (for a compound measured in a single experiment) or an average value (for a compound measured in multiple experiments).

Setting [2] is: Homo sapiens, Table 19, head prints unit as "-M", read-out: pERK (IC50) Method A.
The mark [3] stands for this setting: Table 19, head prints unit as "-M".
The mark [4] stands for this setting: Homo sapiens, Table 20, read-out: pERK (IC50, μM) Method A.

Sequence of SHP2 (Q06124 whole entry): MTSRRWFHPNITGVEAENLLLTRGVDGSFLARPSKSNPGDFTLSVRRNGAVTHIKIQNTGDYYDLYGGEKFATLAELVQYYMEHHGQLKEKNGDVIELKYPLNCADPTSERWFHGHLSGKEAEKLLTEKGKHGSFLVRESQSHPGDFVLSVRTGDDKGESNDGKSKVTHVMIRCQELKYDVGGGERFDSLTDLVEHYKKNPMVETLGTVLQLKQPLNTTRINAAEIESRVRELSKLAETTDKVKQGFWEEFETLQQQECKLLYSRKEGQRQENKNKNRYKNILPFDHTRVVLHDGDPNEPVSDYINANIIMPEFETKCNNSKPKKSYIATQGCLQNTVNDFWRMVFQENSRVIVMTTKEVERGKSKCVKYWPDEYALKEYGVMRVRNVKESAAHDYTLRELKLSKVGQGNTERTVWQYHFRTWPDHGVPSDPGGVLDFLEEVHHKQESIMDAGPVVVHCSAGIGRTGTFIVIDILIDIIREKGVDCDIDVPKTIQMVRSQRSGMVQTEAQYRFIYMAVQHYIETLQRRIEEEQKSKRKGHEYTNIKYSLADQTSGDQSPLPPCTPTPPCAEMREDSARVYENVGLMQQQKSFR

`Cn1nc2ccc(-c3c[nH]c4nc(N5[C@@H]6CC[C@H]5C[C@@H](N)C6)n(C)c(=O)c34)c(Cl)c2c1Cl` [Example 78, 2-(endo-3-amino-8-azabicyclo[3.2.1]octan-8-yl)-5-(3,4-dichloro-2-methyl-2H-indazol-5-yl)-3-methyl-3,7-dihydro-4H-pyrrolo[2,3-d]pyrimidin-4-one]: the IC50 – broadly, the concentration at which inhibition is half-maximal – is 0.13 µM in assay [1] (setting [2]) and 0.006 µM against SHP2 (setting [3]).

As for `Cn1cc2c(Cl)c(-c3c[nH]c4nc(N5CCC6(CCCCN6)CC5)n(C)c(=O)c34)ccc2n1` [Example 41, 5-(4-chloro-2-methyl-2H-indazol-5-yl)-3-methyl-2-(1,9-diazaspiro[5.5]undecan-9-yl)-3,7-dihydro-4H-pyrrolo[2,3-d]pyrimidin-4-one], the concentration for half-maximal inhibition (IC50) in assay [1] (setting [2]) turned out to be 1.8 µM; against SHP2 (setting [3]), 0.057 µM.

Consider `C[C@H]1CN(c2nc3[nH]cc(-c4ccc5nn(C)cc5c4Cl)c3c(=O)n2C)CCN1` [Example 45, (S)-5-(4-chloro-2-methyl-2H-indazol-5-yl)-3-methyl-2-(3-methylpiperazin-1-yl)-3,7-dihydro-4H-pyrrolo[2,3-d]pyrimidin-4-one], for which the IC50 in assay [1] (setting [2]) was found to be 1.5 µM; against SHP2 (setting [3]), 0.11 µM.

Take `Cn1cc2c(Cl)c(-c3c[nH]c4nc(N5[C@@H]6CC[C@H]5[C@@H](F)[C@@H](N)C6)n(C)c(=O)c34)ccc2n1` [Example 132, 2-((1S,2S,3S,5R)-3-amino-2-fluoro-8-azabicyclo[3.2.1]octan-8-yl)-5-(4-chloro-2-methyl-2H-indazol-5-yl)-3-methyl-3,7-dihydro-4H-pyrrolo[2,3-d]pyrimidin-4-one]: the IC50 in assay [1] (setting [2]) stood at 0.25 µM; at SHP2 (setting [3]) it was 0.015 µM.

As for `CCn1nc2ccc(-c3n[nH]c4nc(N5[C@H]6CC[C@@H]5[C@H](N)C6)n(C)c(=O)c34)c(Cl)c2c1Cl` [Example 127, 6-((1R,2R,4S)-2-amino-7-azabicyclo[2.2.1]heptan-7-yl)-3-(3,4-dichloro-2-ethyl-2H-indazol-5-yl)-5-methyl-1,5-dihydro-4H-pyrazolo[3,4-d]pyrimidin-4-one], the IC50 was 0.063 µM in assay [1] (setting [2]) and 0.0037 µM against SHP2 (setting [3]).

For the compound `Cn1cc2c(Cl)c(-c3c[nH]c4nc(N5CC6COCC(C5)N6)n(C)c(=O)c34)ccc2n1` [Example 17, 2-(3-oxa-7,9-diazabicyclo[3.3.1]nonan-7-yl)-5-(4-chloro-2-methyl-2H-indazol-5-yl)-3-methyl-3,7-dihydro-4H-pyrrolo[2,3-d]pyrimidin-4-one], the IC50 turned out to be 0.8 µM in assay [1] (setting [2]) and 0.043 µM against SHP2 (setting [3]).

Take `COc1cnc2ccc(-c3c[nH]c4nc(N5[C@H]6CC[C@@H]5[C@H](N)C6)n(C)c(=O)c34)c(Cl)c2n1` [Example 169, 2-((1R,2R,4S)-2-amino-7-azabicyclo[2.2.1]heptan-7-yl)-5-(5-chloro-3-methoxyquinoxalin-6-yl)-3-methyl-3,7-dihydro-4H-pyrrolo[2,3-d]pyrimidin-4-one]: the IC50 in assay [1] (setting [4]) came to 0.073 µM; against SHP2 (Table 20), 0.0033 µM.

On to `Cn1c(N2[C@@H]3CC[C@H]2C[C@@H](N)C3)nc2[nH]cc(-c3ccc4[nH]ncc4c3Cl)c2c1=O` [Example 77], for which the IC50 in assay [1] (setting [2]) came out at 1.9 µM; against SHP2 (setting [3]), 0.04 µM.

As to `CCn1cc2c(Cl)c(-c3c[nH]c4nc(N5CCC6(CCC[C@H]6N)CC5)n(C)c(=O)c34)ccc2n1` [Example 11, (R)-2-(1-amino-8-azaspiro[4.5]decan-8-yl)-5-(4-chloro-2-ethyl-2H-indazol-5-yl)-3-methyl-3,7-dihydro-4H-pyrrolo[2,3-d]pyrimidin-4-one], the IC50 in assay [1] (setting [2]) was 0.053 µM; against SHP2 (setting [3]) it was 0.0063 µM.

As to `CN[C@@H]1C[C@@H]2CC[C@H]1N2c1nc2[nH]cc(-c3ccc4nn(C)c(Cl)c4c3Cl)c2c(=O)n1C` [Example 104, 5-(3,4-dichloro-2-methyl-2H-indazol-5-yl)-3-methyl-2-((1R,2R,4S)-2-(methylamino)-7-azabicyclo[2.2.1]heptan-7-yl)-3,7-dihydro-4H-pyrrolo[2,3-d]pyrimidin-4-one], the IC50 worked out at 0.084 µM in assay [1] (setting [2]) and 0.0027 µM on SHP2 (setting [3]).

For the compound `CCn1cc2c(Cl)c(-c3c[nH]c4nc(N5CCC6(CC5)COC[C@H]6N)n(C)c(=O)c34)ccc2n1` [Example 12, (S)-2-(4-amino-2-oxa-8-azaspiro[4.5]decan-8-yl)-5-(4-chloro-2-ethyl-2H-indazol-5-yl)-3-methyl-3,7-dihydro-4H-pyrrolo[2,3-d]pyrimidin-4-one], the results for the IC50 (in assay [1] (setting [2]); on SHP2 (setting [3])) were 0.12 µM and 0.011 µM, respectively.

Regarding `COc1c(-c2c[nH]c3nc(N4C5CCC4CC(N)C5)n(C)c(=O)c23)ccc2nn(C)cc12` (stereo not drawn) [Example 73, 2-(endo-3-amino-8-azabicyclo[3.2.1]octan-8-yl)-5-(4-methoxy-2-methyl-2H-indazol-5-yl)-3-methyl-3,7-dihydro-4H-pyrrolo[2,3-d]pyrimidin-4-one], the IC50 is greater than 10 µM in assay [1] (Table 19, head prints unit as "-M", read-out: pERK (IC50) Method A) and 0.87 µM against SHP2 (setting [3]).

For `Cc1nc2ccc(-c3n[nH]c4nc(N5[C@H]6CC[C@@H]5[C@H](N)C6)n(C)c(=O)c34)c(Cl)c2s1` [Example 113, 6-((1R,2R,4S)-2-amino-7-azabicyclo[2.2.1]heptan-7-yl)-3-(7-chloro-2-methylbenzo[d]thiazol-6-yl)-5-methyl-1,5-dihydro-4H-pyrazolo[3,4-d]pyrimidin-4-one], the IC50 was determined as 0.078 µM in assay [1] (setting [2]) and 0.0045 µM against SHP2 (setting [3]).

Consider `Cn1c(N2[C@@H]3CC[C@H]2C[C@@H](N)C3)nc2[nH]cc(-c3ccc4nnn(C)c4c3Cl)c2c1=O` [Example 74, 2-(endo-3-amino-8-azabicyclo[3.2.1]octan-8-yl)-5-(7-chloro-1-methyl-1H-benzo[d][1,2,3]triazol-6-yl)-3-methyl-3,7-dihydro-4H-pyrrolo[2,3-d]pyrimidin-4-one], for which the IC50 in assay [1] (setting [2]) came to 5.4 µM; on SHP2 (setting [3]), 0.17 µM.

Consider `Cn1cc2c(Cl)c(-c3c[nH]c4nc(N5C6CCCC5CNC6)n(C)c(=O)c34)ccc2n1` [Example 27, 2-(3,9-diazabicyclo[3.3.1]nonan-9-yl)-5-(4-chloro-2-methyl-2H-indazol-5-yl)-3-methyl-3,7-dihydro-4H-pyrrolo[2,3-d]pyrimidin-4-one], for which the IC50 came out at 0.046 µM in assay [1] (setting [2]) and 0.007 µM on SHP2 (setting [3]).

As for `Cn1nc2ccc(-c3n[nH]c4nc(N5[C@@H]6CC[C@H]5C[C@@H](N)C6)n(C)c(=O)c34)c(Cl)c2c1Cl` [Example 160, 6-(endo-3-amino-8-azabicyclo[3.2.1]octan-8-yl)-3-(3,4-dichloro-2-methyl-2H-indazol-5-yl)-5-methyl-1,5-dihydro-4H-pyrazolo[3,4-d]pyrimidin-4-one, hydrochloride salt], the IC50 in assay [1] (setting [4]) is 0.23 µM; against SHP2 (Table 20), 0.0085 µM.

In the case of `Cn1nc2ccc(-c3n[nH]c4nc(N5[C@@H]6CC[C@H]5C[C@@](C)(N)C6)n(C)c(=O)c34)c(Cl)c2c1Cl` [Example 161, 6-(endo-3-amino-3-methyl-8-azabicyclo[3.2.1]octan-8-yl)-3-(3,4-dichloro-2-methyl-2H-indazol-5-yl)-5-methyl-1,5-dihydro-4H-pyrazolo[3,4-d]pyrimidin-4-one], the IC50 in assay [1] (setting [4]) was 0.26 µM; against SHP2 (Table 20), 0.012 µM.

Turning to `Cn1cc2c(Cl)c(-c3c[nH]c4nc(N5[C@H]6CC[C@@H]5[C@@H](N)C6)n(C)c(=O)c34)ccc2n1` (racemic) [Example 164, 2-(rac-(1R,2S,4S)-2-amino-7-azabicyclo[2.2.1]heptan-7-yl)-5-(4-chloro-2-methyl-2H-indazol-5-yl)-3-methyl-3,7-dihydro-4H-pyrrolo[2,3-d]pyrimidin-4-one], the results for the half-inhibitory concentration (IC50) (in assay [1] (setting [4]); at SHP2 (Table 20)) were 6.3 µM and 0.17 µM, respectively.
